pIC50: −log10 of the molar value. The source made the active and inactive calls. The rule behind the calls is not given here. Square brackets hold non-standard residues; d marks the D form. Peptide text beside a SMILES is read from it. 1Nal = N[C@@H](Cc1cccc2ccccc12)C(=O)O; 2Nal = N[C@@H](Cc1ccc2ccccc2c1)C(=O)O; pS = N[C@@H](COP(=O)(O)O)C(=O)O

What all share (format): cell-based
Data set [1] is filed under the species Rattus norvegicus. Description: Inhibition of FITC-fMLF induced FPR1 internalization in rat RBL-2H3/ETFR cells at 10 uM preincubated for 30 mins followed by agonist addition measured after 30 mins by fluorescence assay.
A short description of data set [2]: Induction of cell migration in rat RBL2H3/ETFR cells stably expressing FPR1 at 10 nM after 6 hrs by RTCA. The conditions noted are these: 0.01 µM.
The species entered for data set [3] is Rattus norvegicus. Description: Inhibition of FITC-fMLF induced FPR1 internalization in rat RBL-2H3/ETFR cells at 10 uM preincubated for 30 mins followed by agonist addition measured after 30 mins by confocal fluorescent microscopy.
Data set [4] deals with RBL-2H3. Description: Induction of cell migration in rat RBL2H3 cells at 10 nM after 6 hrs by RTCA. The conditions noted are these: rbl-2h3, 6 h, 0.01 µM.
Data set [5] is filed under the species Rattus norvegicus. Description: Antagonist activity at FPR1 in rat RBL-2H3/ETFR cells assessed as inhibition of fMLF-induced cell migration at 10 nM after 6 hrs by RTCA relative to fMLF.
Data set [6] can be described thus: (§1) Antagonist activity at FPR1 in rat RBL-2H3/ETFR cells assessed as inhibition of fMLF-induced cell migration after 4 hrs by RTCA relative to fMLF. The conditions noted are these: for pIC50: Rattus norvegicus, RBL-2H3, 4 h, read-out: IC50.
Data set [7] is filed under the species Rattus norvegicus. The description is as §1.

As to `CSCC[C@H](NC=O)C(=O)N[C@@H](CC(C)C)C(=O)N[C@@H](Cc1ccccc1)C(=O)O` [N-FORMYLMETHIONYL-LEUCYLPHENYLALANINE], the inhibition entry in data set [1] and in data set [3] was “Active” in each case. Moreover, the Activity entry in data set [2] is “Toxic”.
For the molecule `N=C(N)NCCC[C@@H]1NC(=O)[C@H](CCC(=O)O)NC(=O)[C@H](CCCNC(=N)N)NC(=O)[C@H](Cc2ccccc2)NC(=O)[C@H](CO)NC1=O` (cyclo(ERSFR)), the Activity entry in data set [4] and in data set [2] was “Non-Toxic” each time. The inhibition result in data set [1] was “Active”. Also, the inhibition in data set [5] came out at 20%.
Turning to `N=C(N)NCCC[C@@H]1NC(=O)[C@H](COP(=O)(O)O)NC(=O)[C@H](CCCNC(=N)N)NC(=O)[C@H](Cc2ccc(O)cc2)NC(=O)[C@H](CO)NC1=O` (cyclo(RSYR[pS])), the Activity entry in data set [4] and in data set [2] was “Non-Toxic” in each case. Further, in data set [5], the inhibition is 36%.
Consider `N=C(N)NCCC[C@H](NC(=O)[C@H](CO)NC(=O)[C@H](CCCNC(=N)N)NC(=O)[C@@H](N)COP(=O)(O)O)C(=O)N[C@@H](Cc1ccc(O)cc1)C(N)=O` (H-[pS]RSRY-NH2), for which the Activity result in data set [4] and in data set [2] was “Non-Toxic” each time. Also, the inhibition in data set [5] turned out to be 58%.
`N=C(N)NCCC[C@@H]1NC(=O)[C@H](CO)NC(=O)[C@H](CCCNC(=N)N)NC(=O)[C@H](Cc2ccc(O)cc2)NC(=O)[C@H](COP(=O)(O)O)NC1=O` (cyclo(RSR[pS]Y)): the Activity entry in data set [4] and in data set [2] was “Non-Toxic” throughout. Besides, the inhibition in data set [5] came to 31%.
`N=C(N)NCCC[C@@H]1NC(=O)[C@H](CCC(=O)O)NC(=O)[C@H](CCCNC(=N)N)NC(=O)[C@H](Cc2c[nH]c3ccccc23)NC(=O)[C@H](CO)NC1=O` (cyclo(ERSWR)): the Activity result in data set [4] and in data set [2] was “Non-Toxic” each time. The inhibition result in data set [1] was “inactive”. The inhibition in data set [5] worked out at 0%.
For the molecule H-SRSRY-NH2, the inhibition entry in data set [1] was “Active”.
On to `N=C(N)NCCC[C@@H]1NC(=O)[C@H](CO)NC(=O)[C@H](CCCNC(=N)N)NC(=O)[C@H](Cc2ccc(O)cc2)NC(=O)[C@H](CO)NC1=O` (cyclo(RSRSY)), for which the Activity result in data set [4] and in data set [2] was “Non-Toxic” in each case. In data set [6], the pIC50 is 13.00. In addition, the inhibition result in data set [7] is “Dose-dependent effect”; in data set [5] it was 75%. Moreover, the inhibition entry in data set [1] and in data set [3] was “Active” throughout.
`N=C(N)NCCC[C@@H]1NC(=O)[C@H](CCC(=O)O)NC(=O)[C@H](CCCNC(=N)N)NC(=O)[C@H](Cc2cccc3ccccc23)NC(=O)[C@H](CO)NC1=O` (cyclo([1Nal]RERS)): the Activity result in data set [4] and in data set [2] was “Non-Toxic” each time. Also, the inhibition in data set [1] stood at 62%; in data set [5] it was 43%.
With `N=C(N)NCCC[C@H](NC(=O)[C@H](COP(=O)(O)O)NC(=O)[C@H](CCCNC(=N)N)NC(=O)[C@@H](N)CO)C(=O)N[C@@H](Cc1ccc(O)cc1)C(N)=O` (H-SR[pS]RY-NH2), the Activity result in data set [4] and in data set [2] was “Non-Toxic” each time. The IC50 entry in data set [6] is “Dose-dependent effect”. In data set [6], the pIC50 is 13.00. For the same molecule, the inhibition in data set [1] and in data set [5] was 67% throughout. In addition, in data set [3], the inhibition entry was “Active”.
`N=C(N)NCCC[C@@H]1NC(=O)[C@H](CCC(=O)O)NC(=O)[C@H](CCCNC(=N)N)NC(=O)[C@H](Cc2ccc(O)cc2)NC(=O)[C@H](CO)NC1=O` (cyclo(ERSYR)): the Activity entry in data set [4] and in data set [2] was “Non-Toxic” in each case. Moreover, the figures for the inhibition in data set [1] and in data set [5] were 55% and 49%, respectively.
In the case of `N=C(N)NCCC[C@@H]1NC(=O)[C@H](CO)NC(=O)[C@H](CO)NC(=O)[C@H](Cc2ccc(O)cc2)NC(=O)[C@H](CCCNC(=N)N)NC1=O` (cyclo(RRYSS)), the Activity result in data set [4] and in data set [2] was “Non-Toxic” in each case. Further, the inhibition result in data set [1] and in data set [3] was “inactive” throughout. Moreover, in data set [5], the inhibition came to 0%.
As to `N=C(N)NCCC[C@@H]1NC(=O)[C@H](CO)NC(=O)[C@H](CCCNC(=N)N)NC(=O)[C@H](Cc2ccc(O)cc2)NC(=O)[C@H](CCC(=O)O)NC1=O` (cyclo(EYRSR)), the Activity result in data set [4] and in data set [2] was “Non-Toxic” each time. Moreover, the inhibition in data set [5] stood at 34%.
Regarding `N=C(N)NCCC[C@@H]1NC(=O)[C@H](CCC(=O)O)NC(=O)[C@H](CCCNC(=N)N)NC(=O)[C@H](Cc2ccc(O)cc2)NC(=O)[C@H](CCC(=O)O)NC1=O` (cyclo(EREYR)), the Activity result in data set [4] and in data set [2] was “Non-Toxic” throughout. Further, the inhibition in data set [1] and in data set [5] was 61% throughout.
Regarding `N=C(N)NCCC[C@@H]1NC(=O)[C@H](CCC(=O)O)NC(=O)[C@H](CCCNC(=N)N)NC(=O)[C@H](Cc2ccc3ccccc3c2)NC(=O)[C@H](CO)NC1=O` (cyclo([2Nal]RERS)), the Activity result in data set [4] and in data set [2] was “Non-Toxic” in each case. For the same molecule, the inhibition result in data set [1] is “Active”. The inhibition in data set [5] came out at 23%.
`N=C(N)NCCC[C@H](NC(=O)[C@H](Cc1ccc(O)cc1)NC(=O)[C@H](COP(=O)(O)O)NC(=O)[C@H](CO)NC(=O)[C@@H](N)CCCNC(=N)N)C(N)=O` (H-RS[pS]YR-NH2): the Activity entry in data set [4] and in data set [2] was “Non-Toxic” each time. Further, the inhibition entry in data set [1] and in data set [3] was “inactive” in each case. For the same molecule, the inhibition in data set [5] came to 0%.
